In patent US12606548B2, “Fungicidal oxadiazoles” (FMC CORPORATION, priority 2019, dated 2026):
Marks after values point to notes of the source that are not given here.

Legend:
Assay type in all cases: in vivo
Phakopsora pachyrhizi = assay: Test A: test suspension sprayed on soybean seedlings, inoculated next day with Phakopsora pachyrhizi (Asian soybean rust), visual disease rating; conditions: for Test A rating (% disease control): relative to the controls
Method in brief: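 Compounds first dissolved in acetone (3% of final volume), then suspended in acetone/water 50/50 with 250 ppm PEG400 and sprayed to run-off on soybean seedlings at the stated ppm rate. Inoculated next day with P. pachyrhizi spores; 24 h saturated atmosphere at 22 °C, then 8 days in growth chamber at 22 °C before visual disease rating.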

Zymoseptoria tritici = assay: Test B: test suspension sprayed on wheat seedlings, inoculated next day with Zymoseptoria tritici (wheat leaf blotch), visual disease rating; conditions: for Test B rating (% disease control): relative to the controls
Excerpt: General protocol for preparing test suspensions for Tests A-C: the test compounds were first dissolved in acetone in an amount equal to 3% of the final volume and then suspended at the desired concentration (in ppm) in acetone and purified water (50/50 mix by volume) containing 250 ppm of the surfactant PEG400 (polyhydric alcohol esters). The resulting test suspensions were then used in Tests A-C.
The test suspension was sprayed to the point of run-off on wheat seedlings. The following day the seedlings were inoculated with a spore suspension of Zymoseptoria tritici (the causal agent of wheat leaf blotch) and incubated in a saturated atmosphere at 24° C., for 48 h, and then moved to a growth chamber at 20° C., for 17 days, after which time visual disease ratings were made.
Results for Tests A-C are given in Table A. In the Table, a rating of 100 indicates 100% disease control and a rating of 0 indicates no disease control (relative to the controls). A dash (-) indicates the compound was not tested. The test suspensions were sprayed at the concentration listed in the column “Rate in ppm”, unless otherwise indicated. An asterisk “*” next to the rating indicates a 250 ppm test suspension was used, a double asterisk “**” next to the rating indicates a 100 ppm test suspension was used, and a triple asterisk “***” next to the rating indicates a 50 ppm test suspension was used.

[1] = tested on: Puccinia recondita f. sp. tritici; assay: Test C: test suspension sprayed on wheat seedlings, inoculated next day with Puccinia recondita f. sp. tritici (wheat leaf rust), visual disease rating; conditions: for Test C rating (% disease control): relative to the controls
Method in brief: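 Wheat seedlings received a run-off spray of test suspension (ppm rate as listed; acetone/water 50/50, 250 ppm PEG400 surfactant). Leaf rust spore inoculation followed one day later, then 24 h at 20° C in saturated air and 6 days at 20° C before disease was scored visually.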

Compound | Test A rating (% disease control) (Phakopsora pachyrhizi; Rate 10 ppm test suspension) [%] | Test B rating (% disease control) (Zymoseptoria tritici; 250 ppm test suspension) | Test C rating (% disease control) ([1]; Rate 10 ppm test suspension) [%] | further results
Cc1ccccc1C(O)c1ccc(-c2noc(C(F)(F)F)n2)cc1 (racemic) [Compound 497] | 100 | 5* % | 0 | –
COC(=O)c1coc(Cc2ccc(-c3noc(C(F)(F)F)n3)cc2)c1 [compound 456] | 100 | 65* % | 68 | –
COC(=O)c1coc(COc2ccc(-c3noc(C(F)(F)F)n3)cc2)n1 [Compound 403, methyl 2-[[4-[5-(trifluoromethyl)-1,2,4-oxadiazol-3-yl]-phenoxy]methyl]oxazole-4-carboxylate] | 60 | 47* % | 0 | –
CON=C(CCl)COC(=O)c1cnn(Cc2ccc(-c3noc(C(F)(F)F)n3)cc2)c1 [compound 494] | 100 | 47* % | 0 | –
2-[[4-[5-(trifluoromethyl)-1,2,4-oxadiazol-3-yl]phenyl]methyl]-1H-isoindole-1,3(2H)-dione [Compound 90] | – | – | – | Test A disease control rating (Phakopsora pachyrhizi; 260 ppm test suspension): 100%; Test B disease control rating (Zymoseptoria tritici; 260 ppm test suspension): 100%; Test C disease control rating ([1]; 260 ppm test suspension): 100%
O=C(NCCn1cccn1)c1csc(COc2ccc(-c3noc(C(F)(F)F)n3)cc2)n1 [compound 471] | 77 | 15* % | 80 | –
CCOC(=O)c1cnn(COc2ccc(-c3noc(C(F)(F)F)n3)cc2)c1 [compound 376] | – | – | – | Test A disease control rating (Phakopsora pachyrhizi; 10 ppm test suspension): 100%; Test B disease control rating (Zymoseptoria tritici; 250 ppm test suspension): 49* %; Test C disease control rating ([1]; 10 ppm test suspension): 68%
O=C(NC1CCC(F)(F)CC1)c1coc(Cc2ccc(-c3noc(C(F)(F)F)n3)cc2)n1 [compound 395] | 95 | 0* % | 97 | –
N#CCNC(=O)c1csc(COc2ccc(-c3noc(C(F)(F)F)n3)cc2)n1 [compound 473] | 94 | 28* % | 89 | –
O=C(NCCOC(F)(F)F)c1coc(Cc2ccc(-c3noc(C(F)(F)F)n3)cc2)n1 [compound 401] | 100 | 77* % | 99 | –
N#CCNC(=O)c1coc(COc2ccc(-c3noc(C(F)(F)F)n3)cc2)n1 [compound 468] | 84 | 22* % | 0 | –
O=C(c1csc(Cc2ccc(-c3noc(C(F)(F)F)n3)cc2)n1)N1CCOCC1 [compound 487] | 100 | – | 100 | Test B rating (% disease control) (Zymoseptoria tritici; 100 ppm test suspension (double asterisk)): 98** %
OC(c1ccc(-c2noc(C(F)(F)F)n2)cc1)c1cccc(Cl)c1 (racemic) [compound 499] | – | 48* % | – | Test A rating (% disease control) (Phakopsora pachyrhizi; Rate 250 ppm test suspension): 100%; Test C rating (% disease control) ([1]; Rate 250 ppm test suspension): 100%
